Patent publication US20190111059A1, “COMPOSITIONS AND METHODS FOR TREATING AUTISM SPECTRUM DISORDER” (Marinus Pharmaceuticals, Inc., priority 2017, published 2019)
“Also recorded” adds a separate entry of the source. Where a name gives a salt, the structure may show the parent alone.

Key:
[1] = tested on: children with non-syndromic autism spectrum disorder (ASD) and language impairment; assay: Randomized placebo-controlled trial: Vineland Adaptive Behavior Scale (VABS); assay type: in vivo, human; settings: higher = better; for VABS Daily living, estimated effect: calcium salt
Procedure: The Vineland Adaptive Behavior Scale 2nd Edition (“VABS”) is a reliable and valid measure of the ability to perform age-appropriate everyday skills though a 20-30 min structured interview with a caretaker. Standard scores from the communication, daily living, social and motor skills, and adaptive behavioral composite were analyzed. Standard scores have a mean of 100, standard deviation of 15 and range 20-160. […] This two-arm double-blind randomized placebo-controlled parallel study with a 1:1 allocation was performed at Arkansas Children's Research Institute (Little Rock, Ark., USA) from 4 Jun. 2012 to 22 Nov. 2013. Those confirmed to have language impairment were randomized to the folinic acid or placebo group and a fasting blood sample was obtained. Randomization was performed using a random number generator with a block size of four. The research pharmacists had exclusive access to the randomization allocation. After breakfast, the participants returned for language, developmental and behavioral assessments. Following these assessments the family was given the 12 weeks of the intervention and was instructed on its administration. Language, developmental and behavioral assessments were repeated after 12 weeks of treatment. The target dose of the intervention (INN: DL folinic acid calcium salt; USAN: leucovorin calcium) was 2 mg kg^−1 per day (maximum 50 mg per day) in two equally divided doses with half of the target dose given during the first 2 weeks. Dye-free, milk-product-free, vegetarian capsules were provided in three strengths (5, 10 and 25 mg) by Lee Silsby Compounding Pharmacy (Cleveland Heights, Ohio, USA). Certificate of analysis was provided for each capsule strength by an independent analytical service (Eagle Analytical Services, Houston, Tex., USA) for each batch of capsules produced. In all cases, potency was at least 99%. Secondary outcomes. Secondary outcome measures included the Ohio Autism Clinical Impression Scale (OACIS), Vineland Adaptive Behavior Scale 2nd Edition (VABS) Survey Interview Form and several questionnaires. Parents and teachers were asked to complete the Aberrant Behavior Checklist (ABC), Social Responsiveness Scale (SRS) and Behavioral Assessment System for Children 2nd Edition (BASC). Only parents were asked to complete the Autism Impact Measure (AIM) and Autism Symptoms Questionnaire (ASQ). Secondary outcome measures were analyzed using the mixed-model regression. Because of the large number of secondary outcomes, correction for multiple comparisons was conducted using the false discovery rate.

[2] = tested on: children with non-syndromic autism spectrum disorder (ASD) and language impairment; assay: Randomized placebo-controlled trial: adverse effects monitoring; assay type: in vivo, human
Excerpt: Adverse events were monitored every 3 weeks using a modification of the Dosage Record Treatment Emergent Symptom Scale. Adverse events were considered related to the treatment if they started or worsened following the start of the trial. If adverse events were persistent or severe, the parents were offered the option of halving the dose or discontinuing the intervention. The dose could only be reduced once and was never increased if reduced.
The total number of patients reporting each adverse event was compared across treatment groups using a Fisher exact test. Adverse events that were possibly, probably or definitely related to the treatments were analyzed.

[3] = vs placebo, mixed-model regression
[4] = folinic acid group n = 21, 12 weeks

Nc1nc2c(c(=O)[nH]1)N(C=O)C(CNc1ccc(C(=O)N[C@@H](CCC(=O)O)C(=O)O)cc1)CN2 (mixture of isomers) [Folinic acid, DL folinic acid calcium salt]
VABS Social skills, 12-week assessment mean ([1]; 2 mg kg^−1 per day, 12 weeks, baseline 64.4): 68.3 Standard Score | VABS Daily living, 12-week assessment mean ([1]; 2 mg kg^−1 per day, 12 weeks, baseline 64.6): 69.2 Standard Score | VABS Adaptive behavior, 12-week assessment mean ([1]; 2 mg kg^−1 per day, 12 weeks, baseline 64.8): 67.7 Standard Score | VABS Communication, 12-week assessment mean ([1]; 2 mg kg^−1 per day, 12 weeks, baseline 66.2): 68.3 Standard Score | VABS Motor skills, 12-week assessment mean ([1]; 2 mg kg^−1 per day, 12 weeks, baseline 78.9): 81.7 Standard Score | VABS Adaptive behavior, estimated effect [1, 3]: 0.3 Standard Score | VABS Communication, estimated effect [1, 3]: 0.2 Standard Score | VABS Motor skills, estimated effect [1, 3]: 0.1 Standard Score | VABS Social skills, estimated effect [1, 3]: 0.2 Standard Score | VABS Daily living, estimated effect [1, 3]: 0.5 Standard Score | VABS Daily living, estimated effect ([1]; vs placebo, mixed-model regression, listed as folinic acid): significantly improved | Adverse effects, difference between treatment groups (folinic acid vs placebo) ([2]; 2 mg kg^−1 per day, 12 weeks, Fisher exact test, calcium salt): no significant difference; also recorded: no significant group differences | Aggression, incidence [2, 4]: (10%) | Any adverse effect, incidence [2, 4]: (57%) | Blurred vision, incidence [2, 4]: (0%) | Confusion, incidence [2, 4]: (5%) | Constipation, incidence [2, 4]: (10%) | Decreased appetite, incidence [2, 4]: (10%) | Decreased motor activity, incidence [2, 4]: (0%) | Depression, incidence [2, 4]: (5%) | Diarrhea, incidence [2, 4]: (5%) | Dizziness, incidence [2, 4]: (0%) | Drowsiness, incidence [2, 4]: (0%) | Dry mouth, excessive thirst, incidence [2, 4]: (14%) | Emotional lability, incidence [2, 4]: (5%) | Excitement or agitation, incidence [2, 4]: (29%) | Gastroesophageal reflux, incidence [2, 4]: (5%) | Headache, incidence [2, 4]: (10%) | Increased motor activity, incidence [2, 4]: (29%) | Increased salivation, incidence [2, 4]: (0%) | Increased tantrums, incidence [2, 4]: (5%) | Insomnia, incidence [2, 4]: (29%) | Involuntary movements, incidence [2, 4]: (10%) | Nasal congestion, incidence [2, 4]: (0%) | Nausea/vomiting, incidence [2, 4]: (0%) | Rash, incidence [2, 4]: (0%) | Restlessness, incidence [2, 4]: (14%) | Stiffness, incidence [2, 4]: (5%) | Sweating, incidence [2, 4]: (0%) | Tremors, incidence [2, 4]: (0%) | Weight gain, incidence [2, 4]: (10%) | Weight loss, incidence [2, 4]: (5%) | Serious adverse events ([2]; folinic acid group, 2 mg kg^−1 per day, 12 weeks): no serious adverse events
